{
  "source": "ChEMBL document CHEMBL1132763",
  "about": "“8-Aminocyclazocine analogues: synthesis and structure-activity relationships” (Bioorg Med Chem Lett, 2000)",
  "key": {"Mu-type opioid receptor": {"molecular_target": "Mu-type opioid receptor (Cavia porcellus, UniProt P97266)", "sequence (P97266 whole entry)": "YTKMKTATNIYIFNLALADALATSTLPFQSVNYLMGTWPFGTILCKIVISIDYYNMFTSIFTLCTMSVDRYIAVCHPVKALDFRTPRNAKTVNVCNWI", "assay": "Binding affinity was determined against Opioid receptor mu 1 obtained from guinea pig brain membranes using [3H]DAMGO as radioligand"}, "[1]": {"molecular_target": "Kappa-type opioid receptor (Cavia porcellus, UniProt P41144)", "sequence (P41144 whole entry)": "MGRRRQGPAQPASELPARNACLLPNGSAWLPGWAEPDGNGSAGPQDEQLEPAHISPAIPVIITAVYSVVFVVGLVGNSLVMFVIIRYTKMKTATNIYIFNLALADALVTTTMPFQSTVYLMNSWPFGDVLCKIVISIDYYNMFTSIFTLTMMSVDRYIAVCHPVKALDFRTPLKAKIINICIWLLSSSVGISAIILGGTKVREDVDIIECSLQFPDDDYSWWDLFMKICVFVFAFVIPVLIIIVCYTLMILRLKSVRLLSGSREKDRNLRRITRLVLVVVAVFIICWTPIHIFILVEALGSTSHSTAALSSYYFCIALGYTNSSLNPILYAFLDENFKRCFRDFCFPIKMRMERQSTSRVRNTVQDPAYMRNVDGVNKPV", "assay": "Binding affinity was determined against Opioid receptor kappa 1 obtained from guinea pig brain membranes using [3H]U-69593 as radioligand"}, "[2]": {"assay": "Binding affinity was determined against Opioid receptor delta 1 obtained from guinea pig brain membranes using [3H]naltrindole as radioligand"}},
  "data": [
    {"compound": "C[C@@H]1[C@@H]2Cc3ccc(O)cc3[C@@]1(C)CN2CC1CC1", "values": [
      {"measurement": "Ki", "setting": "Mu-type opioid receptor", "value": 360, "unit": "nM"},
      {"measurement": "Ki", "setting": "[1]", "value": 76, "unit": "nM"}
    ]},
    {"compound": "CNc1ccc2c(c1)[C@@]1(C)CCN(CC3CC3)C(C2)[C@@H]1C", "note": "(mixture of isomers)", "values": [
      {"measurement": "Ki", "setting": "[1]", "value": 8.5, "unit": "nM"}
    ]},
    {"compound": "C[C@H]1C2Cc3ccc(N(C)Cc4ccccc4)cc3[C@@]1(C)CCN2CC1CC1", "note": "(mixture of isomers)", "values": [
      {"measurement": "Ki", "setting": "Mu-type opioid receptor", "value": 56, "unit": "nM"},
      {"measurement": "Ki", "setting": "[1]", "value": 44, "unit": "nM"}
    ]},
    {"compound": "C[C@H]1C2Cc3ccc(N(C)C)cc3[C@@]1(C)CCN2CC1CC1", "note": "(mixture of isomers)", "values": [
      {"measurement": "Ki", "setting": "Mu-type opioid receptor", "value": 82, "unit": "nM"},
      {"measurement": "Ki", "setting": "[1]", "value": 33, "unit": "nM"}
    ]},
    {"compound": "C[C@H]1C2Cc3ccc(NCc4ccccc4)cc3[C@@]1(C)CCN2CC1CC1", "note": "(mixture of isomers)", "values": [
      {"measurement": "Ki", "setting": "Mu-type opioid receptor", "value": 1.5, "unit": "nM"},
      {"measurement": "Ki", "setting": "[1]", "value": 4.7, "unit": "nM"}
    ]},
    {"compound": "C[C@H]1C2Cc3ccc(N)cc3[C@@]1(C)CCN2CC1CC1", "note": "(mixture of isomers)", "values": [
      {"measurement": "Ki", "setting": "Mu-type opioid receptor", "value": 9.5, "unit": "nM"},
      {"measurement": "Ki", "setting": "[1]", "value": 4.1, "unit": "nM"}
    ]},
    {"compound": "C[C@H]1C2Cc3ccc(N4CCCCC4)cc3[C@@]1(C)CCN2CC1CC1", "note": "(mixture of isomers)", "values": [
      {"measurement": "Ki", "setting": "Mu-type opioid receptor", "value": 950, "unit": "nM"},
      {"measurement": "Ki", "setting": "[1]", "value": 300, "unit": "nM"}
    ]},
    {"compound": "C[C@H]1C2Cc3ccc(N4CCOCC4)cc3[C@@]1(C)CCN2CC1CC1", "note": "(mixture of isomers)", "values": [
      {"measurement": "Ki", "setting": "Mu-type opioid receptor", "value": 650, "unit": "nM"},
      {"measurement": "Ki", "setting": "[1]", "value": 560, "unit": "nM"}
    ]},
    {"compound": "C[C@H]1C2Cc3ccc(N4CCN(C)CC4)cc3[C@@]1(C)CCN2CC1CC1", "note": "(mixture of isomers)", "values": [
      {"measurement": "Ki", "setting": "Mu-type opioid receptor", "value": 21, "unit": "nM"},
      {"measurement": "Ki", "setting": "[1]", "value": 8.8, "unit": "nM"}
    ]},
    {"compound": "CC(C)Nc1ccc2c(c1)[C@@]1(C)CCN(CC3CC3)C(C2)[C@@H]1C", "note": "(mixture of isomers)", "values": [
      {"measurement": "Ki", "setting": "Mu-type opioid receptor", "value": 240, "unit": "nM"},
      {"measurement": "Ki", "setting": "[1]", "value": 78, "unit": "nM"}
    ]},
    {"compound": "CCNc1ccc2c(c1)[C@@]1(C)CCN(CC3CC3)C(C2)[C@@H]1C", "note": "(mixture of isomers)", "values": [
      {"measurement": "Ki", "setting": "Mu-type opioid receptor", "value": 5.1, "unit": "nM"},
      {"measurement": "Ki", "setting": "[1]", "value": 3.3, "unit": "nM"}
    ]},
    {"compound": "C[C@H]1C2Cc3ccc(N4CCCC4)cc3[C@@]1(C)CCN2CC1CC1", "note": "(mixture of isomers)", "values": [
      {"measurement": "Ki", "setting": "[1]", "value": 410, "unit": "nM"}
    ]},
    {"compound": "C[C@H]1C2Cc3ccc(NCCc4ccccc4)cc3[C@@]1(C)CCN2CC1CC1", "note": "(mixture of isomers)", "values": [
      {"measurement": "Ki", "setting": "Mu-type opioid receptor", "value": 9, "unit": "nM"},
      {"measurement": "Ki", "setting": "[1]", "value": 11, "unit": "nM"}
    ]},
    {"compound": "C[C@H]1[C@H]2Cc3ccc(Nc4ccccc4)cc3[C@@]1(C)CCN2CC1CC1", "note": "(racemic)", "values": [
      {"measurement": "Ki", "setting": "Mu-type opioid receptor", "value": 1.3, "unit": "nM"},
      {"measurement": "Ki", "setting": "[1]", "value": 0.83, "unit": "nM"}
    ]},
    {"compound": "C[C@H]1[C@H]2Cc3ccc(O)cc3[C@@]1(C)CCN2CC1CC1", "note": "(racemic)", "values": [
      {"measurement": "Ki", "setting": "[1]", "value": 0.18, "unit": "nM"}
    ]},
    {"compound": "C[C@H]1C2Cc3ccc(N)cc3[C@@]1(C)CCN2CC1CC1", "note": "(stereo in doubt; (+)-6)", "values": [
      {"measurement": "Ki", "setting": "Mu-type opioid receptor", "value": 780, "unit": "nM"},
      {"measurement": "Ki", "setting": "[1]", "value": 506, "unit": "nM"}
    ]},
    {"compound": "C[C@H]1[C@H]2Cc3ccc(Nc4ccccc4)cc3[C@@]1(C)CCN2CC1CC1", "note": "(stereo in doubt; (+)-12)", "values": [
      {"measurement": "Ki", "setting": "Mu-type opioid receptor", "value": 46, "unit": "nM"},
      {"measurement": "Ki", "setting": "[1]", "value": 27, "unit": "nM"}
    ]},
    {"compound": "C[C@H]1C2Cc3ccc(N)cc3[C@@]1(C)CCN2CC1CC1", "note": "(stereo in doubt; (-)-5)", "values": [
      {"measurement": "Ki", "setting": "Mu-type opioid receptor", "value": 1.8, "unit": "nM"},
      {"measurement": "Ki", "setting": "[1]", "value": 1.2, "unit": "nM"}
    ]},
    {"compound": "C[C@H]1[C@H]2Cc3ccc(Nc4ccccc4)cc3[C@@]1(C)CCN2CC1CC1", "note": "(stereo in doubt; (-)-11)", "values": [
      {"measurement": "Ki", "setting": "Mu-type opioid receptor", "value": 1.1, "unit": "nM"},
      {"measurement": "Ki", "setting": "[1]", "value": 0.54, "unit": "nM"}
    ]},
    {"compound": "C[C@H]1C2Cc3ccc(NCc4ccccc4)cc3[C@@]1(C)CCN2CC1CC1", "note": "(stereo in doubt; (-)-14)", "values": [
      {"measurement": "Ki", "setting": "Mu-type opioid receptor", "value": 0.67, "unit": "nM"},
      {"measurement": "Ki", "setting": "[1]", "value": 2.1, "unit": "nM"}
    ]},
    {"compound": "C[C@H]1[C@H]2Cc3ccc(O)cc3[C@]1(C)CCN2CC1CC1", "note": "[CYCLAZOCINE]", "values": [
      {"measurement": "Ki", "setting": "[2]", "value": 0.58, "unit": "nM"}
    ]}
  ]
}
